Consider 2 compounds from paper PMC11284788, “NN1213 – A Potent, Long-Acting, and Selective Analog of Human Amylin” (Journal of Medicinal Chemistry, 2024).

In general, kinetic solubility refers to solubility judged after dilution from a stock solution rather than from solid.

A short description of series [1]: Solubility versus pH profile.
Series [2] is described as follows: ThT assay: fibril formation propensity and peptide recovery. The note with it: for recovery: residual dissolved peptide after 45 h of shaking, centrifugation and 0.22 μm filtration, HPLC, relative to amount before stress. The series is classed as physicochemical. The method, boiled down: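 Fibrillation lag time is read visually from ThT fluorescence-time curves (444/485 nm, 20-min reads, 45 h, 37 °C, 960 rpm shaking) of 250 μM peptide with 1 μM ThT at pH 4.0 or 7.5. The most conservative of four replicates is used. Peptide recovery is post-stress soluble peptide (HPLC, 215/276 nm) as fraction of initial.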

A short description of series [3]: HMWP content by size-exclusion chromatography. To be noted: covalent dimers and polymers prior to fibril formation testing, SEC, % of total absorbance area at 215 nm. In kind it is physicochemical. The method, boiled down: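 HMWP percentage is the covalent dimer/polymer peak area relative to total absorbance area, with extinction coefficients taken as equal to the main peak. Isocratic size-exclusion elution used 50% (v/v) 2-propanol containing 0.5 M NaCl and phosphate buffer; measured on analogs prior to fibril assays.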
Background: Size exclusion chromatography separates by hydrodynamic size, large species first.

[4] abbreviates: bis-tris-propane buffer, pH 6, aqueous buffer.
[5] abbreviates: bis-tris-propane buffer, pH 6.5, aqueous buffer.
The mark [6] stands for this setting: bis-tris-propane buffer, pH 7, aqueous buffer.
The mark [7] stands for this setting: bis-tris-propane buffer, pH 7.5, aqueous buffer.
The mark [8] stands for this setting: bis-tris-propane buffer, pH 8, aqueous buffer.
[9] abbreviates: lactate buffer, pH 4, aqueous buffer.
Setting [10] is: lactate buffer, pH 5, aqueous buffer.

In brackets after ≈: the same amount, converted by molar mass. Numbered stars: 1 amine (or outer) side, 2 acyl side, 3 side chain; on linkers, the order of the positions; unused ones are H or OH. Bridge positions count the residues as written; N and C are the ends. Side chains are listed from the residue outwards. Peptide text beside a SMILES is read from it. * marks the point of attachment. C20 diacid = O=C(O)CCCCCCCCCCCCCCCCCCC(=O)*; γGlu = O=C(O)[C@H](CCC(=O)[*:2])N[*:1]

Turning to `CC(C)C[C@H](NC(=O)[C@H](CCCNC(=N)N)NC(=O)[C@H](CCC(N)=O)NC(=O)[C@@H](NC(=O)[C@H](C)NC(=O)[C@@H]1CSSC[C@H](NC(=O)[C@@H](N)CCCCNC(=O)CC[C@H](NC(=O)CC[C@H](NC(=O)CCCCCCCCCCCCCCCCCCC(=O)O)C(=O)O)C(=O)O)C(=O)N[C@@H](CC(N)=O)C(=O)N[C@@H]([C@@H](C)O)C(=O)N[C@@H](C)C(=O)N[C@@H]([C@@H](C)O)C(=O)N1)[C@@H](C)O)C(=O)N[C@@H](C)C(=O)N[C@@H](CC(=O)O)C(=O)N[C@@H](Cc1ccccc1)C(=O)N[C@@H](CC(C)C)C(=O)N[C@@H](CCCNC(=N)N)C(=O)N[C@@H](Cc1c[nH]cn1)C(=O)N[C@@H](CO)C(=O)N[C@@H](CO)C(=O)N1CCC[C@H]1C(=O)N[C@@H](CC(N)=O)C(=O)N[C@@H](Cc1ccccc1)C(=O)NCC(=O)N[C@@H](C)C(=O)N1CCC[C@H]1C(=O)N[C@@H](CC(C)C)C(=O)N[C@@H](CO)C(=O)N[C@@H](CO)C(=O)N[C@H](C(=O)N[C@@H](CC(N)=O)C(=O)N[C@H](C(=O)NCC(=O)N[C@@H](CO)C(=O)N[C@@H](CC(=O)O)C(=O)N[C@H](C(=O)N[C@@H](Cc1ccc(O)cc1)C(N)=O)[C@@H](C)O)C(C)C)[C@@H](C)O` [Peptide 5] (H-K([γGlu-γGlu-C20 diacid])CNTATCATQRLADFLRHSSPNFGAPLSSTNVGSDTY-NH2; disulfide 2-7), the solubility (kinetic) in series [1] (setting [4]), in series [1] (setting [5]), in series [1] (setting [6]), in series [1] (setting [7]), in series [1] (setting [8]) and in series [1] (setting [9]) was no less than 200 µM each time. The compound also returned a solubility (kinetic) in series [1] (setting [10]) of 172 µM (≈ 776 µg/mL). The “ThT, pH 7.5 lag-time” value in series [2] (250 μM peptide, 10 mM HEPES pH 7.5, 1 μM ThT, 37 °C, 960 rpm, 45 h, lowest of four replicas, average of experiments) is listed as 35 h. The compound also yielded a recovery in series [2] (pH 7.5) of 100%. The compound further showed an HMWP in series [3] (analogs 1–9 (pH 7.5 series)) of 7%.
Regarding `CC[C@H](C)[C@H](NC(=O)[C@H](C)NC(=O)CNC(=O)[C@H](Cc1ccccc1)NC(=O)[C@H](CC(N)=O)NC(=O)[C@@H]1CCCN1C(=O)[C@H](CO)NC(=O)[C@H](CO)NC(=O)[C@H](Cc1c[nH]cn1)NC(=O)[C@H](CCCNC(=N)N)NC(=O)[C@H](CC(C)C)NC(=O)[C@H](Cc1ccccc1)NC(=O)[C@H](CCC(=O)O)NC(=O)[C@H](C)NC(=O)[C@H](CC(C)C)NC(=O)[C@H](CCCNC(=N)N)NC(=O)[C@H](CCC(N)=O)NC(=O)[C@@H](NC(=O)[C@H](C)NC(=O)[C@@H]1CSSC[C@H](NC(=O)[C@@H](N)CCCCNC(=O)CC[C@H](NC(=O)CCCCCCCCCCCCCCCCCCC(=O)O)C(=O)O)C(=O)N[C@@H](CC(N)=O)C(=O)N[C@@H]([C@@H](C)O)C(=O)N[C@@H](C)C(=O)N[C@@H]([C@@H](C)O)C(=O)N1)[C@@H](C)O)C(=O)N1CCC[C@H]1C(=O)N[C@@H](CO)C(=O)N[C@@H](CO)C(=O)N[C@H](C(=O)N[C@@H](CC(N)=O)C(=O)N[C@H](C(=O)NCC(=O)N[C@@H](CO)C(=O)N[C@@H](CCCNC(=N)N)C(=O)N[C@H](C(=O)N[C@@H](Cc1ccc(O)cc1)C(N)=O)[C@@H](C)O)C(C)C)[C@@H](C)O` [Peptide 20] (H-K([γGlu-C20 diacid])CNTATCATQRLAEFLRHSSPNFGAIPSSTNVGSRTY-NH2; disulfide 2-7), the solubility (kinetic) is no less than 200 µM in series [1] (setting [4]); no less than 200 µM in series [1] (setting [5]); no less than 200 µM in series [1] (setting [6]); 183 µM (≈ 812 µg/mL) in series [1] (setting [7]); 109 µM (≈ 484 µg/mL) in series [1] (setting [8]); no less than 200 µM in series [1] (setting [9]). Besides, the kinetic solubility in series [1] (setting [10]) was no less than 200 µM. Also, the “ThT, pH 4.0 lag-time” value in series [2] (250 μM peptide, 10 mM glycylglycine pH 4.0, 1 μM ThT, 37 °C, 960 rpm, 45 h, lowest of four replicas, average of experiments) was 7 h. The recovery in series [2] (pH 4.0) was 91%. In addition, in series [3] (analogs 10–21 (pH 4.0 series)), the HMWP was determined as 4.9%.
